Data published in patent US5183828A, “Polyhydroxybenzoic acid derivatives” (priority 1990, dated 1993).
Several values for one entry are separate records, joined by “and”; a condition that tells them apart may be missing. Equal entries are not always repeated. Structures can show the parent of a compound that is named as a salt.

What was measured:
[1] = test system: L-1210 Leukemia; assay: activity vs L-1210 leukemia (T/C % survival time), Table 3; type: in vivo, mice; conditions: >130 significant
From the text: 3,4-Dihydroxybenzamidoxime and 3,4,5-trihydroxybenzamidoxime were subjected to a further series of tests against various transplanted tumors in mice according to the following protocols:
For L-1210 lymphoid leukemia, 20 grams CDF1 or BDF1 mice […] ip with 10^5 leukemia cells. The drug was given one day after tumor inoculation continued for an additional eight days. The mean survival time for the treated animal was compared to that of the control group. In the table, column 1 gives the name of the compound, column 2 the dose levels, and column 3 treated over control percent survival time. (In other words, a figure of 175 indicates a 75% increase in survival time.)

[2] = test system: Colon 38; assay: activity vs colon 38 (T/C % median tumor weight), Table 5; type: in vivo
Method: A compound of this invention was also tested on the solid colon tumor model, colon 38. The tumor was implanted subcutaneously and the drug injected intraperitoneally twice a day on day two (seven hours apart) and twice on day nine. The median tumor weight estimated from tumor diameter is the parameter of tumor inhibition and is measured on day 20. The median tumor weight of treated versus control=T/C percent.

[3] = scavenging of generated tyrosine free radical by pulse radiolysis
Method: Additional free radical scavenging potential of a compound of this invention was measured on a generated tyrosine free radical. There is evidence that a tyrosine free radical is formed as part of the mammalian ribonucleotide reductase enzyme during the conversion of ribonucleotides to deoxyribonucleotides--see L. Akerblom, et al. Proc. Natl. Acad. Sci. USA, 78, 2159-2163 (1981). The method for the generation of the tyrosine free radical and its destruction by a compound of this invention was accomplished by pulse radiolysis experiments at Brunel University, […] England on the Brunel 4 MeV linear accelerator using a 1.5 cm optical cell and a 200 ns pulse delivering a dose of approximately 1 krad as measured by thiocyanate dosimetry. All solutions were purged with nitrogen using a syringe-deaerating technique prior to use. The detailed description of the methodology can be found in R. L. Willson, Chemistry and Industry, 183-193 (1977).
For the generation of the tyrosine radical, sodium azide was utilized as an intermediate between the pulse radiolysis generated free electron and tyrosine. […] See also I. K. Larsen et al., Eur. J. Biochem, 125, 75-81 (1982).

[4] = target: T1, Δ^5-lipoxygenase (Rattus norvegicus, UniProt P12527); assay: ability to inhibit Δ^5-lipoxygenase; type: biochemical; conditions: RBL-1 cell supernatant
T1 construct: supernatant fraction of lysed rat basophilic leukemia (RBL-1) cells; endogenous in cells; host or cells: RBL-1 cells, 49,000 g supernatant of homogenate
T1 sequence (P12527 1-673): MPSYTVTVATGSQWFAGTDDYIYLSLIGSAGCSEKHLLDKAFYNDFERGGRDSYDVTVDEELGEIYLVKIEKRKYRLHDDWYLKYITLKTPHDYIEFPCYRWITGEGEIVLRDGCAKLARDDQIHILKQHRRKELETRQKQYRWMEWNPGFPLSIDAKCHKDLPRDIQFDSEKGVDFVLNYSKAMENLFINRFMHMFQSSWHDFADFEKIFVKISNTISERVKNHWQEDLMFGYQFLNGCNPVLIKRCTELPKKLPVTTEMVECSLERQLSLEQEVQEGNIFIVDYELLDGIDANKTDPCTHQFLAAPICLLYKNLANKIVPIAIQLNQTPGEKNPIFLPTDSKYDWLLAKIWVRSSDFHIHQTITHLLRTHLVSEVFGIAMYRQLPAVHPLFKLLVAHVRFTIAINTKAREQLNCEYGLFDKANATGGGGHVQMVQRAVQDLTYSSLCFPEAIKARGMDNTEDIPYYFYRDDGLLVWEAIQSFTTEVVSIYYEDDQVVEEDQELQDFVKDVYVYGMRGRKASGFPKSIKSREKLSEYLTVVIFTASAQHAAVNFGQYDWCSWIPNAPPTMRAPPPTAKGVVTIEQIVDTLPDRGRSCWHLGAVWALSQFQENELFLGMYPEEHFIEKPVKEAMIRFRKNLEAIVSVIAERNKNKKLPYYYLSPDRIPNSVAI
Method: This enzyme is believed to initiate the synthesis of slow reacting substance of […]), an important mediator in the pathogenesis of asthma. Thus, a drug capable of inhibiting this enzyme would also help to prevent asthmatic attacks. In this determination, Δ^5 -lipoxygenase was derived from the supernatant fraction of lysed rat basophilic leukemia (RBL-1) cells. […] The Δ^5 -lipoxygenase was derived from RBL-1 cells which were lysed by homogenization in ice-cold buffer (50 mM Tris-HCl buffer, pH 7.2, containing 1 mM EDTA and 14 uM indomethacin). The homogenate was centrifuged at 4 ° C. at 49,000 g for 20 min and the resulting supernatant fraction was used as the source of Δ^5 -lipoxygenase. The enzyme was assayed at 37° using 6.7 uM (0.39 uCi/ml) [1-14C]arachidonic acid as the substrate in 50 mM Tris-HCl buffer, pH 7.2, containing 1 mM gluthatione, 3 mM CaCl2, 14 uM indomethacin, and 0.25 to 0.50 mM EDTA. […] The effect of compounds on Δ^5 -lipoxygenase activity was determined by preincubating the enzyme for 10 min at 30° in the presence or absence of various concentrations of the drug prior to addition of substrate.

[5] = test system: P388 Leukemia; assay: activity vs P388 leukemia (T/C % survival time), Table 6; type: in vivo, mice; conditions: five treatments, >130 significant
Method: The following protocol was used:
CDF1 mice were injected ip with 10^6 cells The drug was administered in the first day after tumor inoculation and continued daily for five treatments. The mean survival time of the treated group compared to the non-treated control group equals T/C×100=T/C percent.

[6] = test system: arachidonic acid induced ear edema; assay: arachidonic acid induced ear edema assay, Table 10; type: in vivo, Mice; conditions: Experiment 2, 2 mg total dose, topical
Method: The compounds of this invention because of their ability to scavenge free-radicals in vivo are capable of modulating inflammation as set forth in the following protocol: Mice received the test compound topically to each side of the right ear one hr prior to the inflammatory challenge, at which time they were challenged (except for the negative control) with 10 microliter of a 2 mg/20 microliter solution of arachidonic acid applied to each side of the right ear. One hour post-challenge, the animals were sacrificed, the right ears removed, and an 8 mm disc punched from each. These discs were then weighed. The following table gives the results of this experiment.

Row | Structure (SMILES) | t/c % (mean survival time) ([1]; 25 mg/kg) [%] | t/c % (mean survival time) ([1]; 50 mg/kg) | t/c % (mean survival time) ([1]; 100 mg/kg) | t/c % (mean survival time) ([1]; 200 mg/kg) | t/c % (mean survival time) ([1]; 300 mg/kg) [%] | T/C % (median tumor weight, day 20) ([2]; 800 mg/kg ip, twice on day two and twice on day nine) [%] | activity at lower doses ([2]; doses lower than 800 mg/kg) | rate constant (tyrosine free radical scavenging) ([3]; pulse radiolysis) | times faster scavenger of tyrosine free radical than hydroxyurea ([3]; vs hydroxyurea) [times] | inhibition at 1 µM ([4]; 1 uM) [%] | inhibition at 10 µM [4] [%] | T/C % (mean survival time) ([5]; 12.5 mg/kg daily) [%] | T/C % (mean survival time) ([5]; 25 mg/kg daily) [%] | T/C % (mean survival time) ([5]; 50 mg/kg daily) [%] | T/C % (mean survival time) ([5]; 100 mg/kg daily, listed as ethyl gallamidate.HCl, hydrochloride) | T/C % (mean survival time) ([5]; 200 mg/kg daily, listed as ethyl gallamidate.HCl, hydrochloride) | T/C % (mean survival time) ([5]; 400 mg/kg daily, listed as ethyl gallamidate.HCl, hydrochloride) | Percent Inhibition vs. positive control [6] [%] | Mean Increase in Weight of Inflammed Ear (± S.E.) ([6]; positive control 19.0 ± 0.5, p = .000) [mg]
1 | NC(=NO)c1ccc(O)c(O)c1 [3,4-dihydroxybenzamidoxime.HCl, 3,4-dihydroxybenzamidoximehydrochloride] | 130 | 137% and 117% and 132% and 146% | 128% and 132% and 141% and 133% | 175% and 128% and 155% and 186% | 113 | 87 | ineffective | 4.5×10^8 M^-1 S^-1 | ≥ 100 | 25 | 94 | – | – | – | – | – | – | – | –
2 | CCOC(=N)c1cc(O)c(O)c(O)c1 [ethyl 3,4,5-trihydroxybenzamidate-HCl, Ethyl 3,4,5-trihydroxybenzamidate hydrochloride] | – | – | – | – | – | – | – | – | – | – | 86 | 104 | 112 | 114 | 129% and 128% | 139% and 123% | 149% and 160% | 35 | 12.3 ± 0.4
